Assay results as given in patent US20120184006A1, “Reductase Enzymes” (UTAH STATE UNIVERSITY, priority 2011, published 2012).

Experiments:
[1] = target: T1, fatty acyl-CoA reductase (FACoAR) from M. aquaeolei VT8 (Marinobacter nauticus (Marinobacter aquaeolei), UniProt A1U3L3); test: Continuous spectrophotometric NADPH assay (decrease of NADPH at 340 nm); type: biochemical; details: for Rate of Reaction (nmol NADP^+ min^−1 mg proten^−1): 60 μm of the respective aldehyde as substrate; for % Specific Activity of Decanal: percent of the specific activity of decanal, 60 μm aldehyde
T1 sequence (A1U3L3 1-661): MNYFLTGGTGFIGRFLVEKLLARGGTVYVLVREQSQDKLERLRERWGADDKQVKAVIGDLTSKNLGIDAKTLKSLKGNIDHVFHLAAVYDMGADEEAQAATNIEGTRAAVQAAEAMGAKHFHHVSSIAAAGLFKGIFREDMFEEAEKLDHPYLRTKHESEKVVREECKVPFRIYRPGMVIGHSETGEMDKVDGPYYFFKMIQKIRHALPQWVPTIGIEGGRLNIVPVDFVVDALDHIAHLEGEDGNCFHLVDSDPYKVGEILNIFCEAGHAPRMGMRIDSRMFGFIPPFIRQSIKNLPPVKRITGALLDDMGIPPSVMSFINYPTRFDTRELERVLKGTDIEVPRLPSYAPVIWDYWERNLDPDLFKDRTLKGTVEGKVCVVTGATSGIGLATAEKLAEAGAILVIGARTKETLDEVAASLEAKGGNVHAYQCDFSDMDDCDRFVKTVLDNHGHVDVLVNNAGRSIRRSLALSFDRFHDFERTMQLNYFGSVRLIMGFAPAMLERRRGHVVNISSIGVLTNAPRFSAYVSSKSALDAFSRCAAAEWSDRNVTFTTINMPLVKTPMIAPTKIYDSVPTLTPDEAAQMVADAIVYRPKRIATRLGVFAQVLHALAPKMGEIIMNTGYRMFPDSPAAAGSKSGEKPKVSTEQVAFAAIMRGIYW
Description: (§1) All assays were conducted in a total volume of 1 mL. A buffer containing 50 mM NaCl, 20 mM Tris-HCl pH 7.0, and 0.5 mg/mL BSA was prepared along with a 1 mM stock of aldehyde dissolved in dimethyl sulfoxide (DMSO) or a 0.1 mM stock of the acyl-CoA, and […] NADPH. All components including protein were degassed in sealed vials and placed under an argon atmosphere. NADPH was degassed as the solid prior to the addition of degassed buffer. Each assay was conducted by adding 75 μL of the NADPH stock, 58 μg protein for acyl-CoA assays or 15 μg protein for aldehyde assays, varying concentrations of aldehyde or acyl-CoA and buffer to bring the final volume to 1 mL. Each sample was continuously monitored for the decrease of NADPH at 340 nm on a Varian 50 Bio UV-visible spectrophotometer (Walnut Creek, Calif.). Initial rates were calculated in Excel using the linear initial rates of reaction obtained from the spectrophotometric assays by obtaining the slope from the best. In line and calculating nmol of NADPH oxidized per second. (Microsoft, Redmond, Wash.). These initial rates were used to calculate Km and Vmax values using the Igor Pro software package (Wavemetrics, Lake Oswego, Oreg.) fitting the initial rates to the Hill equation (31). NADPH specific activity assays were conducted identically as described above using a fixed 60 μM concentration of the various aldehyde substrates or 6 μM of the various acyl-CoA substrates.

M. aquaeolei VT8 FACoAR = test: Addition of detergents and reducing agents to the FACoAR kinetic assay; type: biochemical, Marinobacter aquaeolei VT8; details: varying concentrations (isopropanol 5%)
Text: As part of our characterization, we attempted to alleviate the sigmoidal response of activity to substrate concentration by the addition of reducing agents and detergents. In the case of another type of acyl-CoA reductase, HMG-CoA reductase, the addition of reducing agents and/or detergents could limit, but not eliminate the sigmoidal kinetics related to cooperative binding. […] This seems to indicate the potential of some inter- or intra-protein interaction that is necessary for the activity to occur. To further investigate this possibility, the protein was analyzed by size exclusion chromatography to determine the native weight of the protein.

[2] = system: FALDR (fatty aldehyde reductase) from M. aquaeolei VT8; details: previously tested enzyme, aldehyde substrate; cited from earlier work
[3] = target: T1, fatty acyl-CoA reductase (FACoAR) from M. aquaeolei VT8; test: Continuous spectrophotometric DTNB assay (release of free CoA); type: biochemical; details: for Rate of Reaction (nmol NTB^2− min^−1 mg protein^−1): 6 μM of the respective CoA as substrate; for % Specific Activity of Palmitoyl-CoA: percent of the specific activity of palmitoyl-CoA, 6 μM substrate
Description: Buffers and solutions were prepared as described above for NADPH assays. Each assay was conducted by adding 75 μL of the 2 mg/mL NADPH stock solution in buffer, 58 μg of protein, and 10 μL of a 10 mg/mL solution of DTNB in DMSO, varying concentrations of acyl-CoA and buffer to bring the volume to 1 mL. Reduction of acyl-CoA substrate was monitored by following the increase of the 2-nitro-5-thiobenzoate (NTB^2−) dianion concentration at 412 nm. […] These initial rates were used to calculate the apparent K, and Vmax values using the Igor Pro (Wavemetrics, Lake Oswego, Oreg.) software package fitting the initial rates to the Hill equation (Equation 1) where v is the initial velocity, Vmax is the maximum calculated velocity, [S]^n is the concentration of substrate and n is the Hill coefficient, K0.5^n is the approximation of Km or the approximate substrate concentration at which half of Vmax is obtained at a specific value of the Hill coefficient n. In the case of enzyme inhibition, a modified version of the Hill equation allowing for cooperative inhibition (Equation 2) where all of the coefficients are defined as for the Hill equation and the additional [i]^n is the concentration of inhibitor and n is the Hill coefficient. The Ki^n is the approximate concentration of inhibitor it takes to double the K0.5 at a specific value of the Hill coefficient n.

[4] = substrate: CCCCCCCCCCCCCCCC(=O)SCCNC(=O)CCNC(=O)[C@H](O)C(C)(C)COP(=O)(O)OP(=O)(O)OC[C@H]1O[C@@H](n2cnc3c(N)ncnc32)[C@H](O)[C@@H]1OP(=O)(O)O; test: as above; type: biochemical, Marinobacter aquaeolei VT8
[5] = substrate: CCCCCCCCCCCCCCCC(=O)SCCNC(=O)CCNC(=O)[C@H](O)C(C)(C)COP(=O)(O)OP(=O)(O)OC[C@H]1O[C@@H](n2cnc3c(N)ncnc32)[C@H](O)[C@@H]1OP(=O)(O)O; test: Continuous spectrophotometric NADPH assay (decrease of NADPH at 340 nm); type: biochemical, Marinobacter aquaeolei VT8; details: other: FIG. 5, NADPH assay, acyl-CoA substrate; pH 7.0
Description: as §1

[6] = substrate: CCCC/C=C\CCCCCCCCCC=O; test: as above; type: biochemical, Marinobacter aquaeolei VT8; details: pH 7.0
Description: as §1

[7] = running text b50, fatty aldehyde reduction
[8] = other: FIG. 6, NADPH assay, aldehyde substrate

Molecule	Rate of Reaction (nmol NADP^+ min^−1 mg proten^−1) [1]	% Specific Activity of Decanal [1] [%]	Rate of Reaction (nmol NTB^2− min^−1 mg protein^−1) [3]	% Specific Activity of Palmitoyl-CoA [3] [%]	further results
CCCCCCCCCCCC=O [Dodecanal]	11700 ± 250 nmol NADP^+ min^−1 mg proten^−1	74	–	–	–
Triton X-100	–	–	–	–	effect on FACoAR activity (M. aquaeolei VT8 FACoAR): inhibited activity
CCCCCCCC=O [Octanal]	5200 ± 1500 nmol NADP^+ min^−1 mg proten^−1	33	–	–	–
CCCC/C=C\CCCCCCCCCC=O [Cis-11-hexadecenal]	9910 ± 600 nmol NADP^+ min^−1 mg proten^−1	63	–	–	n (Hill coefficient) ([1]; FIG. 6, NADPH assay, aldehyde substrate): 2±0.8; Km ([1]; fatty aldehyde reduction, read-out: Km (Hill equation)): 25 µM; Vmax [1, 7]: ~10 µmol/min/mg; cooperativity n [1, 7]: ~2; Km [2]: 177 µM; Vmax [2]: approximately 60 nmols min^−1 mg^−1
CCCCCC=O [Hexanal]	1540 ± 30.0 nmol NADP^+ min^−1 mg proten^−1	10	–	–	–
CCCCCCCCCCCCCCCCCC(=O)SCCNC(=O)CCNC(=O)[C@H](O)C(C)(C)COP(=O)(O)OP(=O)(O)OC[C@H]1O[C@@H](n2cnc3c(N)ncnc32)[C@H](O)[C@@H]1OP(=O)(O)O [Stearoyl-CoA]	–	–	37.6 ± 3.5 nmol NTB^2− min^−1 mg protein^−1	69	–
OCCS [β-mercaptoethanol]	–	–	–	–	effect on FACoAR activity (M. aquaeolei VT8 FACoAR): inhibited activity
CCCCCCCC(=O)SCCNC(=O)CCNC(=O)[C@H](O)C(C)(C)COP(=O)(O)OP(=O)(O)OC[C@H]1O[C@@H](n2cnc3c(N)ncnc32)[C@H](O)[C@@H]1OP(=O)(O)O [Octanoyl-CoA]	–	–	18.8 ± 0.83 nmol NTB^2− min^−1 mg protein^−1	34	–
CCCCCCCCCCCC(=O)SCCNC(=O)CCNC(=O)[C@H](O)C(C)(C)COP(=O)(O)OP(=O)(O)OC[C@H]1O[C@@H](n2cnc3c(N)ncnc32)[C@H](O)[C@@H]1OP(=O)(O)O [Lauroyl-CoA]	–	–	44.0 ± 6.3 nmol NTB^2− min^−1 mg protein^−1	80	–
CC(C)O [isopropanol]	–	–	–	–	effect on FACoAR activity (M. aquaeolei VT8 FACoAR): inhibited activity
CCC=O [Propanal]	43 ± 6.0 nmol NADP^+ min^−1 mg proten^−1	<1	–	–	–
CCCCCCCCCC=O [Decanal]	15800 ± 860 nmol NADP^+ min^−1 mg proten^−1	100	–	–	–
CCCCCCCCCCCCCC(=O)SCCNC(=O)CCNC(=O)[C@H](O)C(C)(C)COP(=O)(O)OP(=O)(O)OC[C@H]1O[C@@H](n2cnc3c(N)ncnc32)[C@H](O)[C@@H]1OP(=O)(O)O [Myristoyl-CoA]	–	–	34.1 ± 2.1 nmol NTB^2− min^−1 mg protein^−1	58	–
CCCCC/C=C\C/C=C\C/C=C\C/C=C\CCCC(=O)SCCNC(=O)CCNC(=O)[C@H](O)C(C)(C)COP(=O)(O)OP(=O)(O)OC[C@H]1O[C@@H](n2cnc3c(N)ncnc32)[C@H](O)[C@@H]1OP(=O)(O)O [Arachidonoyl-CoA]	–	–	50.7 ± 3.66 nmol NTB^2− min^−1 mg protein^−1	93	–
O=Cc1ccc2ccccc2c1 [2-Naphthaldehyde]	5280 ± 10 nmol NADP^+ min^−1 mg proten^−1	3	–	–	–
CC=O [Acetaldehyde]	54 ± 6.0 nmol NADP^+ min^−1 mg proten^−1	<1	–	–	–
CCCCCCCC/C=C\CCCCCCCC(=O)SCCNC(=O)CCNC(=O)[C@H](O)C(C)(C)COP(=O)(O)OP(=O)(O)OC[C@H]1O[C@@H](n2cnc3c(N)ncnc32)[C@H](O)[C@@H]1OP(=O)(O)O [Oleyl-CoA]	–	–	41.5 ± 3.1 nmol NTB^2− min^−1 mg protein^−1	76	–
fatty acyl-CoA reductase (FACoAR) from M. aquaeolei VT8 (Marinobacter nauticus VT8) (protein) MNYFLTGGTGFIGRFLVEKLLARGGTVYVLVREQSQDKLERLRERWGADDKQVKAVIGDLTSKNLGIDAKTLKSLKGNIDHVFHLAAVYDMGADEEAQAATNIEGTRAAVQAAEAMGAKHFHHVSSIAAAGLFKGIFREDMFEEAEKLDHPYLRTKHESEKVVREECKVPFRIYRPGMVIGHSETGEMDKVDGPYYFFKMIQKIRHALPQWVPTIGIEGGRLNIVPVDFVVDALDHIAHLEGEDGNCFHLVDSDPYKVGEILNIFCEAGHAPRMGMRIDSRMFGFIPPFIRQSIKNLPPVKRITGALLDDMGIPPSVMSFINYPTRFDTRELERVLKGTDIEVPRLPSYAPVIWDYWERNLDPDLFKDRTLKGTVEGKVCVVTGATSGIGLATAEKLAEAGAILVIGARTKETLDEVAASLEAKGGNVHAYQCDFSDMDDCDRFVKTVLDNHGHVDVLVNNAGRSIRRSLALSFDRFHDFERTMQLNYFGSVRLIMGFAPAMLERRRGHVVNISSIGVLTNAPRFSAYVSSKSALDAFSRCAAAEWSDRNVTFTTINMPLVKTPMIAPTKIYDSVPTLTPDEAAQMVADAIVYRPKRIATRLGVFAQVLHALAPKMGEIIMNTGYRMFPDSPAAAGSKSGEKPKVSTEQVAFAAIMRGIYW	–	–	–	–	K0.5 ([4]; acyl-CoA reduction, data of both DTNB and NADPH assays): 4 µM; Km ([4]; other: FIG. 5, DTNB assay, Hill fit, substrate): 4 ± 0.3 µM; Km [5]: 4.0 ± 0.2 µM; K0.5 ([6]; fatty aldehyde reduction): 25 µM; Km [6, 8]: 48 ± 7 µM; Vmax [6, 8]: 7.7±0.6 μmol min^−1 mg of protein^−1
